Entries after “also recorded” stand apart in the source; their conditions may differ. Where two headings read alike, the source gives them in different places.
Assays:
Assay in all cases: Cell Titer Glo cell viability assay, 48 h
Type in all cases: cell-based, human
HL-60 = conditions: for anti-proliferative activity in HL-60 cells: dose-response, Cell Titer Glo; for IC50: read-out: IC50 of inhibitors on cell lines, m (mean)
Experimental: (§1) The activity of the kinase inhibitor collection against a panel of human leukemia cell lines was determined in cell viability assays run over 48 h using the Cell Titer Glo reagent.
(§2) Figure 1 Effects of kinase inhibition on the proliferation of leukemia cells A. Human leukemia cell lines were treated with duplicate serial dilutions of kinase inhibitors and the effect on cell viability was determined by Cell Titer Glo assay after 48 hours. […] HL-60 cells were treated with serial dilutions of mTor/PI3K B. and MEK C. inhibitors and the effect on cell viability was determined after 48 hours. Data shown is the mean ± SEM of 3 independent experiments.
(§3) Leukemia and lymphoma cell lines were grown in RPMI containing 10% FCS. […] Cell lines are routinely tested for mycoplasma and genotyped by short tandem repeating (STR) profiling to confirm identity.
(§4) Compounds were obtained from SynMedChem and dissolved at […] in DMSO. Serial 2-fold dilutions of each compound were prepared in DMSO using a liquid handling robot (Janus, Perkin Elmer). Each dilution (100nL) was transferred to duplicate tissue culture plates containing 50 μL of media containing 5 × 10^3 cells using a 384 well pin tool. Cells were incubated for 48 h and cell viability was determined using Cell Titer Glow reagents as described by the manufacturer (Promega). Data was acquired using a luminescent plate reader (Envision, Perkin Elmer) and analysed using Activity Base (IDBS, Guilford, UK) and visualised using Spotfire (TIBCO, Palo Alto, CA) as described previously. Each cell line was assayed in independent experiments on at least two occasions. […] Serial 2-fold dilutions of each compound were prepared in media containing 0.2% DMSO and 50 μl of each dilution was added to 10^4 cells in 50 μl of media. Cells were incubated for 48 h and cell viability was determined using Cell Titer Glow assay as described above.

HEL.92.1.7 = conditions: read-out: IC50 of inhibitors on cell lines, m (mean)
Experimental: as §1, §2, §3, §4

MEG-01 = conditions: read-out: IC50 of inhibitors on cell lines, m (mean)
Experimental: as §1, §2, §3, §4

THP-1 = conditions: read-out: IC50 of inhibitors on cell lines, m (mean)
Experimental: as §1, §2, §3, §4

EOL-1 = conditions: read-out: IC50 of inhibitors on cell lines, m (mean)
Experimental: as §1, §2, §3, §4

KU-812 = conditions: read-out: IC50 of inhibitors on cell lines, m (mean)
Experimental: as §1, §2, §3, §4

U937 = conditions: read-out: IC50 of inhibitors on cell lines, m (mean)
Experimental: as §1, §2, §3, §4

OCI-AML3 = conditions: read-out: IC50 of inhibitors on cell lines, m (mean)
Experimental: as §1, §2, §3, §4

MOLT4 = conditions: read-out: IC50 of inhibitors on cell lines, m (mean)
Experimental: as §1, §2, §3, §4

JURKAT = conditions: read-out: IC50 of inhibitors on cell lines, m (mean)
Experimental: as §1, §2, §3, §4

K562 = conditions: read-out: IC50 of inhibitors on cell lines, m (mean)
Experimental: as §1, §2, §3, §4

MV4;11 = conditions: read-out: IC50 of inhibitors on cell lines, m (mean)
Experimental: as §1, §2, §3, §4

[1] = 48 h, mean of 2 independent experiments, 0 = less than 10 nM, cell line not given
[2] = Homo sapiens, 48 h, mean of 2 independent experiments, 0 = less than 10 nM, cell line not given
[3] = Homo sapiens, EOL1, 48 h, mean of 2 independent experiments, 0 = less than 10 nM, cell line not given
[4] = Homo sapiens, KU812, 48 h, mean of 2 independent experiments, 0 = less than 10 nM, cell line not given
[5] = Homo sapiens, U-937, 48 h, mean of 2 independent experiments, 0 = less than 10 nM, cell line not given
[6] = Homo sapiens, OCI-AML-3, 48 h, mean of 2 independent experiments, 0 = less than 10 nM, cell line not given
[7] = Homo sapiens, MOLT-4, 48 h, mean of 2 independent experiments, 0 = less than 10 nM, cell line not given

O=C(NOCC1CC1)c1ccc(F)c(F)c1Nc1ccc(I)cc1Cl [CI-1040]
anti-proliferative activity in HL-60 cells (HL-60; 48 h): potent activity selectively against the HL-60 cell line; also recorded: selective activity

CS(=O)(=O)N1CCN(Cc2cc3nc(-c4cccc5[nH]ncc45)nc(N4CCOCC4)c3s2)CC1 [GDC-0941]
anti-proliferative activity in HL-60 cells (HL-60; 48 h): significant anti-proliferative activity

CC(=O)Nc1cccc(-n2c(=O)n(C3CC3)c(=O)c3c(Nc4ccc(I)cc4F)n(C)c(=O)c(C)c32)c1 [GSK-1120212]
anti-proliferative activity in HL-60 cells (HL-60; 48 h): selective activity

O=C(NOC[C@H](O)CO)c1ccc(F)c(F)c1Nc1ccc(I)cc1F [PD0325901]
anti-proliferative activity in HL-60 cells (HL-60; 48 h): potent activity selectively against the HL-60 cell line; also recorded: selective activity

CN(c1ccccc1CNc1nc(Nc2ccc3c(c2)CC(=O)N3)ncc1C(F)(F)F)S(C)(=O)=O [PF431396]
IC50 (HEL.92.1.7; [1]): 4.07 µM | IC50 (MEG-01; [1]): 6.32 µM | IC50 (THP-1; [1]): 3.66 µM | IC50 (EOL-1; [1]): 1.52 µM | IC50 (KU-812; [1]): 5.24 µM | IC50 (U937; [1]): 1.23 µM | IC50 (OCI-AML3; [1]): 2.96 µM | IC50 (MOLT4; [1]): 6.42 µM | IC50 (HL-60; [1]): 1.64 µM | IC50 (JURKAT; [1]): 3.61 µM | IC50 (K562; [1]): 7.1 µM | IC50 (MV4;11; [1]): 0.16 µM

COc1ccc(-c2cc3c(C)nc(N)nc3n([C@H]3CC[C@H](OCCO)CC3)c2=O)cn1 [PF-04691502]
anti-proliferative activity in HL-60 cells (HL-60; 48 h): significant anti-proliferative activity

CC(=O)Nc1ccc([C@H](C)C(=O)Nc2ncc(C(C)C)s2)cc1 [PHA690509]
IC50 (HEL.92.1.7; [1]): 2.88 µM | IC50 (MEG-01; [1]): 5.39 µM | IC50 (THP-1; [1]): 5.98 µM | IC50 (EOL-1; [1]): 5.31 µM | IC50 (KU-812; [1]): 3.93 µM | IC50 (U937; [1]): 1.05 µM | IC50 (OCI-AML3; [1]): 6.23 µM | IC50 (MOLT4; [1]): 4.68 µM | IC50 (HL-60; [1]): 2.35 µM | IC50 (JURKAT; [1]): 3.21 µM | IC50 (K562; [1]): 5.98 µM | IC50 (MV4;11; [1]): 5.89 µM

COc1ccc2c(c1OC)N=C(NC(=O)c1cccnc1)N1CCN=C21 [PIK-90]
IC50 (HEL.92.1.7; [1]): > 10 µM | IC50 (MEG-01; [1]): > 10 µM | IC50 (THP-1; [1]): 5.41 µM | IC50 (EOL-1; [1]): 5.09 µM | IC50 (KU-812; [1]): > 10 µM | IC50 (U937; [1]): 2.32 µM | IC50 (OCI-AML3; [1]): 0.82 µM | IC50 (MOLT4; [1]): 3.92 µM | IC50 (HL-60; [1]): 2.24 µM | IC50 (JURKAT; [1]): 9.47 µM | IC50 (K562; [1]): > 10 µM | IC50 (MV4;11; [1]): 6.41 µM

CC(=O)Nc1nc(C)c(-c2ccc(Cl)c(S(=O)(=O)NCCO)c2)s1 [PIK-93]
IC50 (HEL.92.1.7): 8.14 µM | IC50 (MEG-01): > 10 µM | IC50 (THP-1): 7.05 µM | IC50 (EOL-1): 0.39 µM | IC50 (KU-812): > 10 µM | IC50 (U937): 1.29 µM | IC50 (OCI-AML3): 1.8 µM | IC50 (MOLT4): 2.95 µM | IC50 (HL-60): 2.07 µM | IC50 (JURKAT): 3.4 µM | IC50 (K562): 9.98 µM | IC50 (MV4;11): 1.23 µM

CN(C)C1CCN(C(=O)c2ccc(NC(=O)Nc3ccc(-c4nc(N5CCOCC5)nc(N5CCOCC5)n4)cc3)cc2)CC1 [PKI-587]
anti-proliferative activity in HL-60 cells (HL-60; 48 h): significant anti-proliferative activity

CCCS(=O)(=O)Nc1ccc(F)c(C(=O)c2c[nH]c3ncc(Cl)cc23)c1F [PLX4720]
IC50 (HEL.92.1.7; [2]): > 10 µM | IC50 (MEG-01; [2]): 0.84 µM | IC50 (THP-1; [2]): > 10 µM | IC50 (EOL-1; [3]): 4.2 µM | IC50 (KU-812; [4]): 0.45 µM | IC50 (U937; [5]): 8.5 µM | IC50 (OCI-AML3; [6]): > 10 µM | IC50 (MOLT4; [7]): > 10 µM | IC50 (HL-60; [2]): > 10 µM | IC50 (JURKAT; [2]): 9.68 µM | IC50 (K562; [2]): > 10 µM | IC50 (MV4;11; [2]): 5.6 µM

CC(C)[C@H](CO)Nc1nc(Nc2ccc(C(=O)O)c(Cl)c2)c2ncn(C(C)C)c2n1 [Purvalanol B]
IC50 (HEL.92.1.7; [2]): > 10 µM | IC50 (MEG-01; [2]): > 10 µM | IC50 (THP-1; [2]): > 10 µM | IC50 (EOL-1; [3]): > 10 µM | IC50 (KU-812; [4]): > 10 µM | IC50 (U937; [5]): > 10 µM | IC50 (OCI-AML3; [6]): > 10 µM | IC50 (MOLT4; [7]): > 10 µM | IC50 (HL-60; [2]): > 10 µM | IC50 (JURKAT; [2]): > 10 µM | IC50 (K562; [2]): > 10 µM | IC50 (MV4;11; [2]): 9.13 µM

Cn1c(=O)c(Oc2ccc(F)cc2F)cc2cnc(NC3CCOCC3)nc21 [R1487]
IC50 (HEL.92.1.7; [1]): > 10 µM | IC50 (MEG-01; [1]): > 10 µM | IC50 (THP-1; [1]): > 10 µM | IC50 (EOL-1; [1]): 1.41 µM | IC50 (KU-812; [1]): > 10 µM | IC50 (U937; [1]): > 10 µM | IC50 (OCI-AML3; [1]): > 10 µM | IC50 (MOLT4; [1]): > 10 µM | IC50 (HL-60; [1]): > 10 µM | IC50 (JURKAT; [1]): > 10 µM | IC50 (K562; [1]): > 10 µM | IC50 (MV4;11; [1]): > 10 µM

CC1=C(C(=O)Nc2cc3cn[nH]c3cc2F)C(c2ccc(C(F)(F)F)cc2)CC(=O)N1 (stereo not shown) [RHO-15]
IC50 (HEL.92.1.7; [1]): > 10 µM | IC50 (MEG-01; [1]): 5.14 µM | IC50 (THP-1; [1]): > 10 µM | IC50 (EOL-1; [1]): 0.19 µM | IC50 (KU-812; [1]): 2.11 µM | IC50 (U937; [1]): 9.64 µM | IC50 (OCI-AML3; [1]): > 10 µM | IC50 (MOLT4; [1]): > 10 µM | IC50 (HL-60; [1]): > 10 µM | IC50 (JURKAT; [1]): > 10 µM | IC50 (K562; [1]): 7.75 µM | IC50 (MV4;11; [1]): 7.22 µM

OCCC#Cc1nc(-c2ccc(F)cc2)c(-c2ccncc2)n1CCCc1ccccc1 [RWJ-67657]
IC50 (HEL.92.1.7; [2]): > 10 µM | IC50 (MEG-01; [2]): > 10 µM | IC50 (THP-1; [2]): > 10 µM | IC50 (EOL-1; [3]): 3.59 µM | IC50 (KU-812; [4]): 5.77 µM | IC50 (U937; [5]): 8.05 µM | IC50 (OCI-AML3; [6]): > 10 µM | IC50 (MOLT4; [7]): > 10 µM | IC50 (HL-60; [2]): > 10 µM | IC50 (JURKAT; [2]): > 10 µM | IC50 (K562; [2]): > 10 µM | IC50 (MV4;11; [2]): 8.28 µM

CNC(=O)c1cc(Oc2ccc(NC(=O)Nc3ccc(Cl)c(C(F)(F)F)c3)cc2)ccn1 [Sorafenib]
IC50 (HEL.92.1.7; [2]): > 10 µM | IC50 (MEG-01; [2]): 6.28 µM | IC50 (THP-1; [2]): > 10 µM | IC50 (KU-812; [4]): 3.79 µM | IC50 (U937; [5]): 5.33 µM | IC50 (OCI-AML3; [6]): 5.46 µM | IC50 (MOLT4; [7]): > 10 µM | IC50 (HL-60; [2]): 5.73 µM | IC50 (JURKAT; [2]): > 10 µM | IC50 (K562; [2]): 9.94 µM | IC50 (MV4;11; [2]): 0.01 µM

COC(=O)c1ccc2c(c1)NC(=O)/C2=C(\Nc1ccc(N(C)C(=O)CN2CCN(C)CC2)cc1)c1ccccc1 [Vargatef]
IC50 (HEL.92.1.7; [2]): 2.97 µM | IC50 (MEG-01; [2]): 0.46 µM | IC50 (THP-1; [2]): 5.85 µM | IC50 (KU-812; [4]): 0.24 µM | IC50 (U937; [5]): 6.31 µM | IC50 (OCI-AML3; [6]): 3.44 µM | IC50 (MOLT4; [7]): 3.69 µM | IC50 (HL-60; [2]): 3.55 µM | IC50 (JURKAT; [2]): 2.7 µM | IC50 (K562; [2]): 0.59 µM | IC50 (MV4;11; [2]): 0.04 µM

— publication PMC5601625, “Defining a therapeutic window for kinase inhibitors in leukemia to avoid neutropenia” (Oncotarget, 2017)
